In patent publication US10647680B2, “Urea compound, preparation method therefor and medical use thereof” (Ancureall Pharmaceutical (Shanghai) Co., Ltd., priority 2016, dated 2020):
Where a name gives a salt, the structure may show the parent alone.

Legend:
Solubility test = type: physicochemical; details: in water at 25° C.±2° C.
Protocol: The fine powder of the test sample was weighed into an appropriate amount of water at 25° C.±2° C. and shaken vigorously for 30 seconds every 5 minutes so that it was fully dissolved within 30 minutes. If no visible solute particles were observed, it was considered completely dissolved. “Readily soluble” means that 1 g of the test sample could be dissolved in 1-10 ml of water; and “soluble” means that 1 g of the test sample could be dissolved in 10-30 ml of water; “slightly soluble” means that 1 g of the test sample could be dissolved in 30-100 ml of water; and “sparingly soluble” means that 1 g of the test sample could be dissolved in 100-1,000 ml of water; “nearly insoluble or insoluble” means that 1 g of the test sample could not be completely dissolved in 10,000 ml of water.

[1] = Stability test: high humidity test (90%); type: physicochemical; details: 25° C., relative humidity 90%±5%, 10 days, HPLC
Protocol: The test samples were placed into an integrated drug stability test chamber (YSEI) in an exposed way at 25° C. and relative humidity of 90%±5% for 10 days. Samples were taken on the 5th and 10th days and tested according to the drug stability test indices.
(§1) An appropriate amount of test samples was taken and dissolved in acetonitrile-water (1:1), and quantitatively diluted to a solution of about 0.3 mg/ml. 20 ul of solution was injected into a liquid chromatograph (Agilent 1260 Infinity), the chromatogram was then recorded and calculated according to the percentage area method. The mobile phase was a phosphate buffer and acetonitrile aqueous solution, and then a gradient elution was carried out.

[2] = Stability test: high temperature test (60° C.); type: physicochemical; details: exposed at 60° C. for 10 days, HPLC
Protocol: The test samples were placed into an integrated drug stability test chamber (YSEI) in an exposed way at 60° C. for 10 days. Samples were taken on the 5th and 10th days and tested according to the drug stability test indices.
as §1

[3] = Stability test: intense light test (4500LX); type: physicochemical; details: 4500LX±500LX light for 10 days, HPLC
Protocol: The test samples were placed into an integrated drug stability test chamber (YSEI) in an exposed way under 4500LX±500LX light for 10 days. Samples were taken on the 5th and 10th days and tested according to the drug stability test indices.
as §1

[4] = Stability in rat hepatocytes; type: in vitro ADME
Protocol: The stability experiment on rat hepatocytes was performed using compound 77 of the present invention as a representative example.
Procedure: The rat hepatocyte William's Medium E mixed reaction solution (2*10^6 cells/mL, 25 BD Gentest) was placed in a carbon dioxide incubator, and a certain volume of test substance or reference substance was added to the reaction system to initiate the reaction. In the final reaction system, the concentrations of the test substance or positive control testosterone were both 1 uM. Samples were taken at 0, 5, 15, 30, 45, 60, and 120 min after the reaction to a new centrifuge tube (3 portions in parallel at each time point), and 3-fold volume of ice methanol solution containing internal standard was added immediately to terminate the reactions, then after centrifugation for 5 min at 15,000 rpm to precipitate the protein, 100 μL of the supernatant was fetched to an autosampler vial for LC-MS/MS analysis (Waters Corp. ACQUITY UPLC, USA Applied Biosystems Inc. mass spectrometer API 400). The ratio of mean peak area of compound 77 to the mean peak area of internal standard at each time point was calculated, and the percentage of this ratio to that at time point 0 was calculated, and then change in this percentage was used to indicate the metabolic stability of the compound 77. […]

[5] = Long-term oral toxicity in mice, effect on blood cells; type: in vivo, mouse; details: ICR mice; for mortality rate / weight reduced compared with the control group: oral once a day, to the 40th day
Protocol: Study on the long-term oral toxicity in mice was performed with compound 77 of the present invention as a representative example.
Procedure: 6-week-old ICR mice purchased from Shanghai Sippr-BK Experimental Animal Co., Ltd. were selected with half males and half females, and the animals were randomly divided with 6 mice each group. The test and control groups were orally given once a day for 40 consecutive days, respectively. The body weight and physiological and pathological features of the mice were observed and recorded every day. The drug doses of the test group were 500 mg/kg, 350 mg/kg, and 250 mg/kg of the methanesulfonate of compound 77 in 20% HP-β-CD clear aqueous solution, respectively (the formulation method was the same as that of the test example 10), and the control group was the 20% HP-β-CD aqueous solution.

[6] = oral once a day for 40 days, 250-500 mg/kg

## CC(C)(C)c1cc(NC(=O)Nc2ccc(-n3cnc4cc(OCCN5CCOCC5)ccc43)cc2)no1 [Compound 16, 1-(5-tert-butyl-isoxazol-3-yl)-3-{4-[5-(2-morpholin-4-yl-ethoxyl)-benzimidazol-1-yl]-phenyl}-urea]
Solubility test; listed as 16 Free base
  Solubility: insoluble (“nearly insoluble or insoluble” means that 1 g of the test sample could not be completely dissolved in 10,000 ml of water)

## CC(C)(C)c1cc(NC(=O)Nc2ccc(-n3cnc4cc(OCCN5CCOCC5)ccc43)cc2)[nH]n1 [Compound 89, 1-(5-tert-butyl-2H-pyrazol-3-yl)-3-{4-[5-(2-morpholin-4-yl-ethoxyl)-benzimidazol-1-yl]-phenyl}-urea]
[1]
  High Humidity (90%): stable
Solubility test; listed as 89 Free base
  Solubility: insoluble (“nearly insoluble or insoluble” means that 1 g of the test sample could not be completely dissolved in 10,000 ml of water)
[2]
  High temperature (60° C.): stable
[3]
  Lighting (4500 LX): stable

## COCCOc1ccc2c(c1)ncn2-c1ccc(NC(=O)Nc2cc(C(C)(C)C)n[nH]2)cc1 [Compound 77, 1-(5-tert-butyl-2H-pyrazol-3-yl)-3-{4-[5-(2-methoxyl-ethoxyl)-benzimidazol-1-yl]-phenyl}-urea]
Solubility test; listed as 77 Free base
  Solubility: insoluble (“nearly insoluble or insoluble” means that 1 g of the test sample could not be completely dissolved in 10,000 ml of water)
[4]
  half-life at 1 uM: > 2 h

## COc1ccc2c(c1)ncn2-c1ccc(NC(=O)Nc2cc(C(C)(C)C)n[nH]2)cc1 [Compound 71, 1-(5-tert-butyl-2H-pyrazol-3-yl)-3-[4-(5-methoxyl-benzimidazol-1-yl)-phenyl]-urea]
Solubility test; listed as 71 Free base
  Solubility: insoluble (“nearly insoluble or insoluble” means that 1 g of the test sample could not be completely dissolved in 10,000 ml of water)

## COCCOc1ccc2c(c1)ncn2-c1ccc(NC(=O)Nc2cc(C(C)(C)C)n[nH]2)cc1 [Compound 77 Mesylate, 1-(5-tert-butyl-2H-pyrazol-3-yl)-3-{4-[5-(2-methoxyl-ethoxyl)-benzimidazol-1-yl]-phenyl}-urea]
[1]
  High Humidity (90%): stable
Solubility test; listed as 77 Mesylate
  Solubility: soluble (“soluble” means that 1 g of the test sample could be dissolved in 10-30 ml of water)
[2]
  High temperature (60° C.): stable
[5]; [6]
  effect on the number of other blood cells: no significant effect
  reticulocytes decreased by: 10%-30%
[5]; 250 mg/kg
  mortality rate: 0%
  weight reduced compared with the control group: 8.2%
[5]; 350 mg/kg
  mortality rate: 16.7%
  weight reduced compared with the control group: 23.1%
[5]; 500 mg/kg
  mortality rate: 66.7%
  weight reduced compared with the control group: 34.7%
[3]
  Lighting (4500 LX): stable
